Molecular target: T1, human dopamine D4 receptor (Homo sapiens, UniProt P21917)
T1 construct: expressed in transfected cells
T1 sequence (P21917 1-419): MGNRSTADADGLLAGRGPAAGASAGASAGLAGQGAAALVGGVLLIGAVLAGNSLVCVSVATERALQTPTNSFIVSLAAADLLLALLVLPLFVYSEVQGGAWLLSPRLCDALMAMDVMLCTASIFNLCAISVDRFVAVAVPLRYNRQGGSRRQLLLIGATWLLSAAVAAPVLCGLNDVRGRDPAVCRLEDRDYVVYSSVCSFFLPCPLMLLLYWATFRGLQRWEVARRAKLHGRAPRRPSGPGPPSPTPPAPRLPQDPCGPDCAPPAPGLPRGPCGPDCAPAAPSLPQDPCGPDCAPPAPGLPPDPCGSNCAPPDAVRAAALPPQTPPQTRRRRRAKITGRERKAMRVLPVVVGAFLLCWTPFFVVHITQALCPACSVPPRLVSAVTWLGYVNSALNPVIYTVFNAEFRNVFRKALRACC
Experiment: Binding affinity for dopamine D4 receptor ([3H]-spiperone displacement, membrane fraction)
Settings: cloned human dopamine D4 receptor; [3H]-spiperone 0.2nM; 37°C for 30 min; Ki from IC50 by the equation of Cheng and Prusoff
Protocol: Cells that express cloned human dopamine D4 receptor were harvested in an assay buffer (50mM Tris-HCl, pH7.4, containg 120 mM NaCl, 5 mM KCl, 1mM MgCl2, and 1 mM CaCl2) and homogenized in a potter type homogenizer. The membrane fraction was centrifuged at 39000 g for 20 min at 4°C. The pellet was suspended in 1 ml of the assay buffer per cells from dish having a diameter of 10 cm and was again homogenated. The aliquots (100µl) was added to the buffer containing [^3H]-spiperone of a final concentration of 0.2nM and a test compound to the final assay volume of 300µl, which was then incubated at 37°C for 30 min. The incubation was stopped by rapid filtration on a GF/B filter. Washing with 5 ml of ice-cold 50 mM Tris-HCl (pH 7.4) was then carried out. The radioactivity was measured with a packered liquid scintillation counter. The amount of nonspecific binding was determined in the presence of 1 µM spiperone, and the amount of the specific binding was then determined by subtracting the amount of the nonspecific binding from the total binding. For each compound, IC50 was determined by a regression analysis using a nonlinear least square method. The Ki value was then calculated by the equation of Cheng and Prusoff.

SMILES | Ki
O=C1CCc2ccccc2N1CCN1CCN(CC2CCCCC2)CC1 [Example 10 (A), 1-[2-(4-Cyclohexanemethyl-1-piperazinyl)-ethyl]-3,4-dihydro-2(1H)-quinolinone] | 34 nM
Cc1ccccc1CN1CCC(CCCN2C(=O)CCc3ccccc32)CC1 [Example 44, 1-[3-[1-(2-Methylbenzyl)-4-piperidinyl]-propyl]-3,4-dihydro-2(1H)-quinolinone] | 2.8 nM
Cc1ccc(CN2CCC(CCCN3C(=O)CCc4ccccc43)CC2)cc1 [Example 55, 1-[3-[1-(4-Methylbenzyl)-4-piperidinyl]-propyl]-3,4-dihydro-2 (1H)-quinolinone] | 1 nM
O=C1CSc2ccccc2N1CCCC1CCN(Cc2ccc(F)cc2)CC1 [Example 32] | 7.6 nM
O=C1CSc2ccccc2N1CCCC1CCN(Cc2ccc(Cl)cc2)CC1 [Example 33] | 1 nM
O=C1CCc2ccccc2N1CCCC1CCN(Cc2ccc(F)c(F)c2)CC1 [Example 30, 1-[3-[1-(3,4-Difuorobenzyl)-4-piperidinyl]-propyl]-3,4-dihydro-2 (1H)-quinolinone] | 5.7 nM
O=c1ccc2ccccc2n1CCCN1CCN(CC2CCCCC2)CC1 [Example 1, 1-[3-(4-Cyclohexanemethyl-1-piperazinyl)-propyl]-2(1H)-quinolinone] | 7.6 nM
Cc1cccc(CN2CCC(CCCN3C(=O)CCc4ccccc43)CC2)c1 [Example 54, 1-[3-[1-(3-Methylbenzyl)-4-piperidinyl]-propyl]-3,4-dihydro-2(1H)-quinolinone] | 7.5 nM
O=C1CCc2ccccc2N1CCCC1CCN(Cc2ccc(Cl)cc2)CC1 [Example 41, 1-[3-[1-(4-Chlorobenzyl)-4-piperidinyl]-propyl]-3,4-dihydro-2 (1H)-quinolinone] | 1.1 nM
O=c1ccc2ccccc2n1CCCN1CCC(Oc2ccc(Cl)cc2)CC1 [Example 20, 1-[3-[4-(4-Chlorophenoxy)-1-piperidinyl]-propyl]-2(1H)-quinolinone] | 2 nM
O=C1COc2ccccc2N1CCCC1CCN(Cc2ccc(Cl)cc2)CC1 [Example 29, 1-[3-[1-(4-Chlorobenzyl)-4-piperidinyl]-propyl]-4H-benzo[1,4]oxazin-3-one] | 5.1 nM
O=C1CCc2ccccc2N1CCCC1CCN(Cc2ccc(F)cc2F)CC1 [Example 39, 1-[3-[1-(2,4-Difluorobenzyl)-4-piperidinyl]propyl]-3,4-dihydro-2(1H)-quinolinone] | 5.9 nM
O=c1ccc2ccccc2n1CCCN1CCN(Cc2ccc(F)c(F)c2)CC1 [Example 3, 1-[3-[4-(3,4-Difluorobenzyl)-1-piperazinyl]-propyl]-2(1H)-quinolinone] | 18 nM
O=c1ccc2ccccc2n1CCCC1CCN(Cc2ccc(F)c(F)c2)CC1 [Example 24, 1-[3-[1-(3,4-Difluorobenzyl)-4-piperidinyl]-propyl]-2 (1H)-quinolinone] | 6 nM
O=C1COc2ccccc2N1CCCC1CCN(Cc2ccc(F)cc2)CC1 [Example 27, 1-[3-[1-(4-Fluorobenzyl)-4-piperidinyl]-propyl]-4H-benzo[1,4]oxazin-3-one] | 29 nM
